According to patent US6887889B2 (Pharmacopeia Drug Discovery, Inc., priority 2001, dated 2005):

The molecules below were run against T1, hMCHR (Homo sapiens, UniProt Q99705) (assay: MCH Assay PCOP Protocol: [125I]-MCH binding to hMCHR-CHO membranes, WGA-SPA beads). Settings: hMCHR-CHO overexpressing membranes, 0.5 nM [125I]-MCH, 2 hours incubation.
T1 construct: host or cells: CHO (Chinese hamster ovary) cells, membranes
T1 sequence (Q99705 whole entry): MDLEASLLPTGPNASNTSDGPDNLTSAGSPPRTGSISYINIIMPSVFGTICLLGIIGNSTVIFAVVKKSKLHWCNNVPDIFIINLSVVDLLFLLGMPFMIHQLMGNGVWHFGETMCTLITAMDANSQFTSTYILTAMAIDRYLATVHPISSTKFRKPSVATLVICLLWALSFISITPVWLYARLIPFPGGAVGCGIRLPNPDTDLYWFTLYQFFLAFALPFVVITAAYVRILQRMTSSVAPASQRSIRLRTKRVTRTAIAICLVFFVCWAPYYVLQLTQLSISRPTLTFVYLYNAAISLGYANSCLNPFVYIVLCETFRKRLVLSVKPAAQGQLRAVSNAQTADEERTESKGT
Experimental: A reaction mixture of 10 μg hMCHR-CHO overexpressing membranes (from Receptor Biology, Inc., Beltville, Md., or internally produced) and 100 μg/well WGA-SPA beads (from Amersham Pharmacia Biotech, Inc., Piscataway, N.J.)/100 μL was prepared in MCHR assay buffer (25 mM HEPES, pH 7.4, 10 mM NaCl, 10 mM MgCl2, 5 mM MnCl2, 0.1%BSA). […] The assay plates were shaken for 5 minutes on a plate shaker, then incubated for 2 hours before cpm/well were determined in a Microbeta Trilux counter (from Perkin Elmer Wallac, Inc., Gaithersburg, Md.).
`COCCN1CCC(CNC(=O)Nc2cc(F)cc(C(F)(F)F)c2)(c2ccc(-c3cccc(C#N)c3)cc2)CC1` [Example 89] was tested, and the Ki was 0.2 to 10 nM. In the case of `CCN1CCC(CNC(=O)Nc2cc(Cl)cc(Cl)c2)(c2ccc(-c3cccc(Cl)c3)cc2)CC1` [Example 121], the Ki is reported as 11 to 100 nM. For `CC(C)CN1CCC(CNC(=O)Nc2cc(Cl)cc(Cl)c2)(c2ccc(-c3cccc(C#N)c3)cc2)CC1` [Example 7, 1-[4-(3′-Cyano-biphenyl-4-yl)-1-isobutyl-piperidin-4-ylmethyl]-3-(3,5-dichloro-phenyl)-urea], the Ki was 11 to 100 nM. `CC(C)N1CCC(CNC(=O)Nc2cc(Cl)cc(Cl)c2)(c2ccc(-c3cccc(Cl)c3)cc2)CC1` [Example 83] was tested, and the Ki was 0.2 to 10 nM. `COCCN1CCC(CNC(=O)Nc2ccc(Cl)c(C(F)(F)F)c2)(c2ccc(-c3cccc(C#N)c3)cc2)CC1` [Example 94] was tested, and the Ki was 0.2 to 10 nM. `CN1CCC(CNC(=O)Nc2ccc(F)cc2F)(c2ccc(-c3cccc(C#N)c3)cc2)CC1` [Example 9, 1-[4-(3′-Cyano-biphenyl-4-yl)-1-methyl-piperidin-4-ylmethyl]-3-(2,4-difluoro-phenyl)-urea] showed a Ki of 0.2 to 10 nM. `O=C(NCC1(c2ccc(-c3cccc(Cl)c3)cc2)CCN(C2CCCCC2)CC1)Nc1cc(Cl)cc(Cl)c1` [Example 120] gave a Ki of 0.2 to 10 nM. For `O=C(NCC1(c2ccc(-c3cccc(Cl)c3)cc2)CCN(C2CCCC2)CC1)Nc1cc(Cl)cc(Cl)c1` [Example 77], the Ki was 0.2 to 10 nM. For `CN1CCC(CNC(=O)Nc2ccc(F)c(F)c2)(c2ccc(-c3cccnc3)cc2)CC1` [Example 30], the Ki was 11 to 100 nM. `COCCN1CCC(CNC(=O)Nc2cc(Cl)cc(Cl)c2)(c2ccc(-c3cccc(CO)c3)cc2)CC1` [Example 93] gave a Ki of 0.2 to 10 nM. `N#Cc1cccc(-c2ccc(C3(CNC(=O)Nc4ccc5c(c4)OCO5)CCN(CC4CC4)CC3)cc2)c1` [Example 98] showed a Ki of 11 to 100 nM. Molecule `CCCN1CCC(CNC(=O)Nc2ccc(Cl)c(C(F)(F)F)c2)(c2ccc(-c3cccc(C#N)c3)cc2)CC1` [Example 71] has a Ki of 0.2 to 10 nM. `COCCN1CCC(CNC(=O)Nc2cc(Cl)cc(Cl)c2)(c2ccc(-c3cccc(Cl)c3)cc2)CC1` [Example 35] was tested, and the Ki was 0.2 to 10 nM. With `CN(CC1(c2ccc(-c3cccc(C#N)c3)cc2)CCN(CC2CC2)CC1)C(=O)Nc1cc(F)cc(F)c1` [Example 97] the Ki was 11 to 100 nM. Work on `O=C(Nc1cc(Cl)cc(Cl)c1)N1CCC(CN(CC2CC2)CC2CC2)(c2ccc(-c3ccc4c(c3)OCO4)cc2)CC1` [Example 132] yielded a Ki of 101 to 5500 nM. With `O=C(NCC1(c2ccc(-c3cccc(Cl)c3)cc2)CCN(CC2CC2)CC1)Nc1ccc(F)c(Cl)c1` [Example 49] the Ki was 0.2 to 10 nM. With `COCCN1CCC(CNC(=O)Nc2cc(F)cc(F)c2)(c2ccc(-c3cccc(C#N)c3)cc2)CC1` [Example 105] the Ki was 0.2 to 10 nM. With `N#Cc1cccc(-c2ccc(C3(CNC(=O)Nc4ccc(F)c(C(F)(F)F)c4)CCN(CC4CC4)CC3)cc2)c1` [Example 100] the Ki was 0.2 to 10 nM. With `CN1CCC(CNC(=O)Nc2cc(Cl)cc(Cl)c2)(c2ccc(-c3ccc4[nH]ccc4c3)cc2)CC1` [Example 78] the Ki was 101 to 5500 nM. `CN(CC1(c2ccc(-c3cccc(C#N)c3)cc2)CCN(CC2CC2)CC1)C(=O)Nc1ccc(F)c(Cl)c1` [Example 99] showed a Ki of 11 to 100 nM. For `CN1CCC(CNC(=O)Nc2cc(Cl)cc(Cl)c2)(c2ccc(-c3cc4ccccc4o3)cc2)CC1` [Example 40], the Ki was 101 to 5500 nM. Molecule `O=C(NCC1(c2ccc(-c3cccc(Cl)c3)cc2)CCN(CC2CC2)CC1)Nc1ccc(Cl)cc1C(F)(F)F` [Example 48] has a Ki of 101 to 5500 nM. `CN1CCC(C(=O)Nc2cc(Cl)cc(Cl)c2)(c2ccc(-c3cccc(C#N)c3)cc2)CC1` [Example 15, 4-(3′-Cyano-biphenyl-4-yl)-1-methyl-piperidine-4-carboxylic acid (3.5-dichloro-phenyl)-amide] was tested, and the Ki was 101 to 5500 nM. With `CCCN(CCC)CC1(c2ccc(-c3cccc(C#N)c3)cc2)CCN(C(=O)Nc2cc(Cl)cc(Cl)c2)CC1` [Example 133] the Ki was 101 to 5500 nM. `N#Cc1cccc(-c2ccc(C3(CNC(=O)Nc4ccc(Cl)cc4C(F)(F)F)CCN(CC4CC4)CC3)cc2)c1` [Example 60] was tested, and the Ki was 101 to 5500 nM. `O=C(NCC1(c2ccc(-c3cccc(Cl)c3)cc2)CCN(CC2CC2)CC1)Nc1ccc(Cl)c(C(F)(F)F)c1` [Example 61] was tested, and the Ki was 11 to 100 nM. Work on `N#Cc1cccc(-c2ccc(C3(CNC(=O)Nc4cc(F)cc(F)c4)CCN(CC4CC4)CC3)cc2)c1` [Example 96] yielded a Ki of 0.2 to 10 nM. With `CN1CCC(CNC(=O)Nc2cc(Cl)cc(Cl)c2)(c2ccc(-c3ccc4c(c3)OCO4)cc2)CC1` [Example 43] the Ki was 0.2 to 10 nM. Molecule `CN1CCC(C(=O)NCc2cc(Cl)cc(Cl)c2)(c2ccc(-c3cccc(C#N)c3)cc2)CC1` [Example 16, 4-(3′-Cyano-biphenyl-4-yl)-1-methyl-piperidine-4-carboxylic acid 3,5-dichloro-benzylamide] has a Ki of 101 to 5500 nM. In the case of `N#Cc1cccc(-c2ccc(C3(CNC(=O)Cc4cc(F)cc(F)c4)CCN(CC4CC4)CC3)cc2)c1` [Example 10, N-[4-(3′-Cyano-biphenyl-4-yl)-1-cyclopropylmethyl-piperidin-4-ylmethyl]-2-(3.5-difluoro-phenyl)-acetamide], the Ki is reported as 101 to 5500 nM. `CN1CCC2(CC1)CN(C(=O)Nc1cc(Cl)cc(Cl)c1)c1ccc(-c3cccc(C#N)c3)cc12` [Example 37] gave a Ki of 11 to 100 nM. `Cc1ccc(C2(CNC(=O)Nc3cc(Cl)cc(Cl)c3)CCN(C3CCCC3)CC2)cc1` [Example 26] gave a Ki of 101 to 5500 nM. Molecule `O=C(NCC1(c2ccc(-c3cccc(Cl)c3)cc2)CCN(C2CCC2)CC1)Nc1cc(Cl)cc(Cl)c1` [Example 107] has a Ki of 101 to 5500 nM. `CCCN1CCC(CNC(=O)Nc2ccc(Cl)cc2C(F)(F)F)(c2ccc(-c3cccc(C#N)c3)cc2)CC1` [Example 47] was tested, and the Ki was 11 to 100 nM. With `CCCN1CCC(CNC(=O)Nc2cc(Cl)cc(Cl)c2)(c2ccc(C)cc2)CC1` [Example 27] the Ki was 101 to 5500 nM. `CN1CCC2(CC1)CN(C(=O)Nc1ccc(F)c(Cl)c1)c1cc(-c3cccc(C#N)c3)ccc12` [Example 17, 1-(3-Chloro-4-fluorophenyl)ureido-6-(3-cyanophenyl)-1′-methyl-spiro[indoline-3,4′-piperidine]] was tested, and the Ki was 101 to 5500 nM. For `CCCCN1CCC(CNC(=O)Nc2cc(Cl)cc(Cl)c2)(c2ccc(-c3cccc(Cl)c3)cc2)CC1` [Example 113], the Ki was 11 to 100 nM. With `CCCN1CCC(CNC(=O)Nc2cc(C(F)(F)F)ccc2Cl)(c2ccc(-c3cccc(C#N)c3)cc2)CC1` [Example 63] the Ki was 11 to 100 nM.
